Tested on: typical microorganisms encountered in personal care compositions
Excerpt: The cleansing compositions, e.g. any of Composition 1 or 1.1 to 1.27, include as preservatives, phenoxyethanol, sodium salicylate and a chelating agent (e.g., a salt of ethylenediaminetetraacetic acid). […] It is well known that preservative agents have established minimum inhibitory concentrations, and below such concentrations preservative agents are not effective in preventing microbial growth.

## O=C([O-])c1ccccc1O.[Na+] [sodium salicylate]
  MIC: about 0.019 % by weight

Source: patent publication US20190282476A1, “Cleansing Composition” (Colgate-Palmolive Company, priority 2015, published 2019)
